Source: ChEMBL document CHEMBL5291721, “A preclinical secondary pharmacology resource illuminates target-adverse drug reaction associations of marketed drugs” (Nat Commun, 2023)

Tests used:
[1] = molecular target: T1, Alpha-1A adrenergic receptor (Homo sapiens, UniProt P35348); assay type: functional, cell-based
T1 sequence (P35348 whole entry): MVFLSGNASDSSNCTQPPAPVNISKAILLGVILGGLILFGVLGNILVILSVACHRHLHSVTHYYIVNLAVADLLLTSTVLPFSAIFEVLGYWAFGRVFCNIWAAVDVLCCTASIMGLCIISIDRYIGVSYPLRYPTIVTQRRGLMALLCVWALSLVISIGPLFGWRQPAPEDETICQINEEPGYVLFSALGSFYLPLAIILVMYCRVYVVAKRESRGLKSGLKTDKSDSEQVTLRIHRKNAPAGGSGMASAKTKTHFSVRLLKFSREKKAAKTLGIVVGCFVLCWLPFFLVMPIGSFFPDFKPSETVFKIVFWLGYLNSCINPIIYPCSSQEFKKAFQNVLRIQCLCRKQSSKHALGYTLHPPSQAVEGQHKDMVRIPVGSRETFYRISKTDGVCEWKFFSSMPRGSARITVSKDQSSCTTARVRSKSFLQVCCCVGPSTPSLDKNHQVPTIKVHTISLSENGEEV

Androgen receptor = molecular target: T2, Androgen receptor (Homo sapiens, UniProt P10275)
T2 sequence (P10275 whole entry): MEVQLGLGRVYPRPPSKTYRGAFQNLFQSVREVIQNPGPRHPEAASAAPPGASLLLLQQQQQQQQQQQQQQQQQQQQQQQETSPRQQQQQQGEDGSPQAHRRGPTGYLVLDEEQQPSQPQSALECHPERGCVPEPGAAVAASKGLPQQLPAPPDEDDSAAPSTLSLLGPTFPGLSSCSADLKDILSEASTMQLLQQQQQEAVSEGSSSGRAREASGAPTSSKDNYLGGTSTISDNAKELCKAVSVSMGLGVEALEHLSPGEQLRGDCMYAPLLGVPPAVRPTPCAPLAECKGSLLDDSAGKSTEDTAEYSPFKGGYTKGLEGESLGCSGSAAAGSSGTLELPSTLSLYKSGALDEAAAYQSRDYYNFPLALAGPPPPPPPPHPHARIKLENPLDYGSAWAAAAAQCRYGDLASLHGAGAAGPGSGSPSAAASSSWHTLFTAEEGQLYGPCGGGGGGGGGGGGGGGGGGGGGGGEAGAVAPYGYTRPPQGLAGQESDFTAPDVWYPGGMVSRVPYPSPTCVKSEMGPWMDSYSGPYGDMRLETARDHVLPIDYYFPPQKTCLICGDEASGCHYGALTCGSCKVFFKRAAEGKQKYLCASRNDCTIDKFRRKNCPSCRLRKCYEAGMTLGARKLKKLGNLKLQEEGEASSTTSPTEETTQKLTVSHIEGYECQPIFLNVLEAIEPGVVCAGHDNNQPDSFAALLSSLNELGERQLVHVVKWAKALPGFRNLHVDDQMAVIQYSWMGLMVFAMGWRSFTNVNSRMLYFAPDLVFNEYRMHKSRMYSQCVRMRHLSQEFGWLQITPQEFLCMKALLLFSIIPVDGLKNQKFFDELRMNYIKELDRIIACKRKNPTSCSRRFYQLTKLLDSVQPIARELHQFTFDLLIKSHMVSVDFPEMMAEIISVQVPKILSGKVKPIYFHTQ

[2] = molecular target: Gamma-aminobutyric acid receptor subunit alpha-1/alpha-2/beta-2/gamma-2 (Homo sapiens, UniProt P14867+P18507+P47869+P47870); assay type: protein-complex assay
Sequence of Gamma-aminobutyric acid receptor subunit alpha-1/alpha-2/beta-2/gamma-2 (P14867 whole entry): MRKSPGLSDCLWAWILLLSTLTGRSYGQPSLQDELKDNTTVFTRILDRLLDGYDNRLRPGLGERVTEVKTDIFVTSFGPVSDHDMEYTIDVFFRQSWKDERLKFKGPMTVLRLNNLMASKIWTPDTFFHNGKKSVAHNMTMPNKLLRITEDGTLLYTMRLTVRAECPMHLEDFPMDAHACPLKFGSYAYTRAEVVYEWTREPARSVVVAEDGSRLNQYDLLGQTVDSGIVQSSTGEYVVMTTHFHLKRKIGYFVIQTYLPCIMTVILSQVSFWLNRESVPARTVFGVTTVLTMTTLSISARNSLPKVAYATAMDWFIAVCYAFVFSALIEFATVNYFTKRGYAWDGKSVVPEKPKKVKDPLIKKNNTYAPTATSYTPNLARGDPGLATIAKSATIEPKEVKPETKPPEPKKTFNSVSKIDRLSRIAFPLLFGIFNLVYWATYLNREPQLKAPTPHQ
Sequence of Gamma-aminobutyric acid receptor subunit alpha-1/alpha-2/beta-2/gamma-2 (P47870 whole entry): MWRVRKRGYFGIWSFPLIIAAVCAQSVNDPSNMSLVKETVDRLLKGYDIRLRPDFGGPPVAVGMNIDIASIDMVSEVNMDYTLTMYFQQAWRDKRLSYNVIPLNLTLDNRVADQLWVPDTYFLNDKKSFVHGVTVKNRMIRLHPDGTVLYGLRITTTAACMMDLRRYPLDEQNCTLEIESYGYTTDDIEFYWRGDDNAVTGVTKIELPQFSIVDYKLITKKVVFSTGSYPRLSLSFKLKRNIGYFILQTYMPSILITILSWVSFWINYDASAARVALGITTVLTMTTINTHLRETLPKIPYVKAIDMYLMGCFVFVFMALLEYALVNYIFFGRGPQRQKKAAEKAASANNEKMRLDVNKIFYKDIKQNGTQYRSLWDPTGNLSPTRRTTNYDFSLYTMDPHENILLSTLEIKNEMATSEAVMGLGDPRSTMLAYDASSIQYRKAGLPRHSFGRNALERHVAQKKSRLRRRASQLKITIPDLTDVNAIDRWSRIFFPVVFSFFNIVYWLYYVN
Sequence of Gamma-aminobutyric acid receptor subunit alpha-1/alpha-2/beta-2/gamma-2 (P18507 whole entry): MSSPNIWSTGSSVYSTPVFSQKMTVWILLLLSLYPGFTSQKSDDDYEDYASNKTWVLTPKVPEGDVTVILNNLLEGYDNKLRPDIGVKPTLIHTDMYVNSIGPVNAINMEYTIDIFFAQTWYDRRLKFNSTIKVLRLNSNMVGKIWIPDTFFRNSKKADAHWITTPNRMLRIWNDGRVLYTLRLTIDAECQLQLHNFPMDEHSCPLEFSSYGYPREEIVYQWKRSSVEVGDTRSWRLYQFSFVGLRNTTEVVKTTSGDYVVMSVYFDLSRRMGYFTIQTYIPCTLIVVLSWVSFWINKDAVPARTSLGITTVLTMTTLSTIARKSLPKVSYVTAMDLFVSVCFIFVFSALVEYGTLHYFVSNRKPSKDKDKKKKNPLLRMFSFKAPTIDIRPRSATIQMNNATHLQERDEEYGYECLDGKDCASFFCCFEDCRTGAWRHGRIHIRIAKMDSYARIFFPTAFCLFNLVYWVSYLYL
Sequence of Gamma-aminobutyric acid receptor subunit alpha-1/alpha-2/beta-2/gamma-2 (P47869 whole entry): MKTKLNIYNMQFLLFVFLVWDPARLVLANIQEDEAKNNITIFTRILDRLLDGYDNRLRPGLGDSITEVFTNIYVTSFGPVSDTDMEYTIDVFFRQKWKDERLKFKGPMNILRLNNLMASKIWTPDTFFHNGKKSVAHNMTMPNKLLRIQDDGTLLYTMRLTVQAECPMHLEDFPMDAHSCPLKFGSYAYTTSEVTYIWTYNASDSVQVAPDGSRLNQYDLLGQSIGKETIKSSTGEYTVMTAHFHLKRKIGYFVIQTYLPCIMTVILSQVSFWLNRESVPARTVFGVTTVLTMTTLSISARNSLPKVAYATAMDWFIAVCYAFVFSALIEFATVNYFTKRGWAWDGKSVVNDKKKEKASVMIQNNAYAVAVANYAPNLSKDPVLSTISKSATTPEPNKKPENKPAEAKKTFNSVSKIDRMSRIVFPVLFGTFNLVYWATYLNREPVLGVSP

Histamine H3 receptor = Histamine H3 receptor (Homo sapiens, UniProt Q9Y5N1)
[3] = molecular target: T3, 5-hydroxytryptamine receptor 1A (Homo sapiens, UniProt P08908)
T3 sequence (P08908 whole entry): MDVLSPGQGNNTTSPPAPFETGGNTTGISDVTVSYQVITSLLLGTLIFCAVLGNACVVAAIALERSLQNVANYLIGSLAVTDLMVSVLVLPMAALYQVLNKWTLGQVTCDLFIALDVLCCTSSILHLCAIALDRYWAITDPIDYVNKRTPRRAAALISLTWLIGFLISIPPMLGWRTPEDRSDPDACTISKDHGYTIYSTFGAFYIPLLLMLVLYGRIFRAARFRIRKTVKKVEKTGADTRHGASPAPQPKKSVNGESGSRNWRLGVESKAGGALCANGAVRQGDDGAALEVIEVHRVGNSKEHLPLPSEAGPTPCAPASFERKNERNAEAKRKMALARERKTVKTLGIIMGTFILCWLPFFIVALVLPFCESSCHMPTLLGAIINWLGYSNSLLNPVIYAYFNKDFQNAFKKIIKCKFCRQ

[4] = molecular target: T4, Amine oxidase [flavin-containing] A (Homo sapiens, UniProt P21397); assay type: functional
T4 sequence (P21397 whole entry): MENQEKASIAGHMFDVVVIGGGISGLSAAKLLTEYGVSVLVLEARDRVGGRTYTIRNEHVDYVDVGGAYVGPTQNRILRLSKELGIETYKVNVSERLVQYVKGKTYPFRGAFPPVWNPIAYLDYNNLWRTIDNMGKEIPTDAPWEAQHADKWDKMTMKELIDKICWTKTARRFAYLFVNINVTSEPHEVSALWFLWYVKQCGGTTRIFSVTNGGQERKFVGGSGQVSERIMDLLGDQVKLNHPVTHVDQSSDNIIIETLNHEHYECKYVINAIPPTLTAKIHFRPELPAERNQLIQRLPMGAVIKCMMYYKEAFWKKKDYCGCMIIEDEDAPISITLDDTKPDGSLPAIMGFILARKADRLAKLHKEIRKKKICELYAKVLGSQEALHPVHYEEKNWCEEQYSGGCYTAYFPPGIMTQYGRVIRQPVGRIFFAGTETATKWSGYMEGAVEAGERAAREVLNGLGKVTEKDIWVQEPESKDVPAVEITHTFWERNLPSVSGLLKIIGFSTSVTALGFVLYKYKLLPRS

[5] = molecular target: cGMP-inhibited 3',5'-cyclic phosphodiesterase 3A (Homo sapiens, UniProt Q14432); assay type: functional
Sequence of cGMP-inhibited 3',5'-cyclic phosphodiesterase 3A (Q14432 whole entry): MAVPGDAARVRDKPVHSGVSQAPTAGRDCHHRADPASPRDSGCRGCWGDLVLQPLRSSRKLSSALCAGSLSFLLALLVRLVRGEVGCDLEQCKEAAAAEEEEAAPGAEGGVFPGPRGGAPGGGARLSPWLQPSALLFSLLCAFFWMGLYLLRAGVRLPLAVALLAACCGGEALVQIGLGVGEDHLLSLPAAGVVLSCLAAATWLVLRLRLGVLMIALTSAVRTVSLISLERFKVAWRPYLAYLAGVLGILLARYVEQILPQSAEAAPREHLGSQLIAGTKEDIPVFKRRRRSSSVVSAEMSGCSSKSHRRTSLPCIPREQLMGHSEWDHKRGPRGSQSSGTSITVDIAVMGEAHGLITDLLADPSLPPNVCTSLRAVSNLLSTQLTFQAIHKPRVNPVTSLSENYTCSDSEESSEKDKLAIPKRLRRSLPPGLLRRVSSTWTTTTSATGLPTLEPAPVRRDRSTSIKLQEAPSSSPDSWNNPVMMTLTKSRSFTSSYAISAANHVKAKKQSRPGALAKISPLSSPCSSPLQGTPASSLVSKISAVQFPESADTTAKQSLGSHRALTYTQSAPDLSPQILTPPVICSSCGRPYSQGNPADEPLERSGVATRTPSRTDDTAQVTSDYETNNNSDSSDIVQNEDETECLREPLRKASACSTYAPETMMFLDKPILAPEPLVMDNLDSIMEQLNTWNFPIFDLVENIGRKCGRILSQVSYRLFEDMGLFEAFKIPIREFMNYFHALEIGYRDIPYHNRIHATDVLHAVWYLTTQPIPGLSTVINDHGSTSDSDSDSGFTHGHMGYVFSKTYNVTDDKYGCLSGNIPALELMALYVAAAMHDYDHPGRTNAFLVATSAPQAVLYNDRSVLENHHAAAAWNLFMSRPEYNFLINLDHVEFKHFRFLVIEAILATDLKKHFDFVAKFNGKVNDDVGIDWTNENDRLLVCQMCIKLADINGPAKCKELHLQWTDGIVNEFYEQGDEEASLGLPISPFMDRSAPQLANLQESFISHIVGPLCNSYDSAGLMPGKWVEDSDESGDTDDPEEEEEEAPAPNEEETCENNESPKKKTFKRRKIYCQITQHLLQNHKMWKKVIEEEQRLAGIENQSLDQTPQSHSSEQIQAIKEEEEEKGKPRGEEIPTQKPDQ

[6] = molecular target: 3',5'-cyclic-AMP phosphodiesterase 4A (Homo sapiens, UniProt P27815); assay type: functional
[7] = molecular target: Prostaglandin G/H synthase 1 (Homo sapiens, UniProt P23219); assay type: functional
Sequence of Prostaglandin G/H synthase 1 (P23219 whole entry): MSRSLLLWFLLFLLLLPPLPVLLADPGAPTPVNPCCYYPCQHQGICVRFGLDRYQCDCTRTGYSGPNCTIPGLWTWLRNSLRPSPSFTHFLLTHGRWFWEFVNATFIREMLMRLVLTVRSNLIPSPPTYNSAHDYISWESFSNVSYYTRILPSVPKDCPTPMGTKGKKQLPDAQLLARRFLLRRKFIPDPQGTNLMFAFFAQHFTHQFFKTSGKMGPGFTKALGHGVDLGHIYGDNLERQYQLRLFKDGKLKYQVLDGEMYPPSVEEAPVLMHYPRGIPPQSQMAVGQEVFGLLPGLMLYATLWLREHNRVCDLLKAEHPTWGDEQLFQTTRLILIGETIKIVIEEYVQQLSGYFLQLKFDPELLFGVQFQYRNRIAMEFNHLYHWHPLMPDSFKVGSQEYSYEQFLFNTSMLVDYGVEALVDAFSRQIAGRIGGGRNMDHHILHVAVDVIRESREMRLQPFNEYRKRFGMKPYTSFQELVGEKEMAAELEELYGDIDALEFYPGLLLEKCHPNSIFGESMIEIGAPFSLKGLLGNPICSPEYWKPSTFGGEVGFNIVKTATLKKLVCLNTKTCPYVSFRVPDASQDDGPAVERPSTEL

[8] = molecular target: Sodium-dependent noradrenaline transporter (Homo sapiens, UniProt P23975)
[9] = molecular target: Sodium-dependent dopamine transporter (Homo sapiens, UniProt Q01959)
Sequence of Sodium-dependent dopamine transporter (Q01959 whole entry): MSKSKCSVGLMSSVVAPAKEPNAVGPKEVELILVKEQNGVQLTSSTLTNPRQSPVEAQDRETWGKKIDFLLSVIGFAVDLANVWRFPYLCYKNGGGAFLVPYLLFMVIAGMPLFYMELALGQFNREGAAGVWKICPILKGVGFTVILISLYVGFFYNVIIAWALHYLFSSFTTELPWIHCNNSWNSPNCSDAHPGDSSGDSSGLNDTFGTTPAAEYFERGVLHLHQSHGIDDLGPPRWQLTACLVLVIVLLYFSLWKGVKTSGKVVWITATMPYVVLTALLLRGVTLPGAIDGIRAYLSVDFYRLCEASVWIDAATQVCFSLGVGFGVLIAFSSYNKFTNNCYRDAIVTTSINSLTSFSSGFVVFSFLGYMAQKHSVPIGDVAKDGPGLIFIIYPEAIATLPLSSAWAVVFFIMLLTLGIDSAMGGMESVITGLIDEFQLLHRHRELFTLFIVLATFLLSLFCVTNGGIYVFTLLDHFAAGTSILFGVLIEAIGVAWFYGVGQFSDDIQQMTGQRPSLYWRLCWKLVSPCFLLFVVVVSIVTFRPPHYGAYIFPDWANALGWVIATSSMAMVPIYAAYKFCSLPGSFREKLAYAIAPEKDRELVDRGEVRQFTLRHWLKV

[10] = molecular target: Sodium-dependent serotonin transporter (Homo sapiens, UniProt P31645)
Sequence of Sodium-dependent serotonin transporter (P31645 whole entry): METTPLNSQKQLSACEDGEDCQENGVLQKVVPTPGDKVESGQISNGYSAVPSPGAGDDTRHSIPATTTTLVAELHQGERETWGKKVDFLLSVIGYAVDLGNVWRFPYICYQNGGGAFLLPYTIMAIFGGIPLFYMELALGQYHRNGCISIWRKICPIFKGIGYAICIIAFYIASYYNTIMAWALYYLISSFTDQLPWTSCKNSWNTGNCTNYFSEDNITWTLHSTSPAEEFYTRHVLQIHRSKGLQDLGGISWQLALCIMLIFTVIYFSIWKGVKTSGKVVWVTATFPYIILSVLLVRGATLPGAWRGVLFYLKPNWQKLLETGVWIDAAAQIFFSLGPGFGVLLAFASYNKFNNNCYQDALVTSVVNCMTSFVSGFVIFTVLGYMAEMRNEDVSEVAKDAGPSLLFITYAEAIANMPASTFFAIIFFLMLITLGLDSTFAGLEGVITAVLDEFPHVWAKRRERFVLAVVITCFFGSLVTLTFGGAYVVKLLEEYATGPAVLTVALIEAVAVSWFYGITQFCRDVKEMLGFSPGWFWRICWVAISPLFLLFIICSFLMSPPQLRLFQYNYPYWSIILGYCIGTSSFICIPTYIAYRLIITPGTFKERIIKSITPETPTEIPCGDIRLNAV

[11] = molecular target: Gamma-aminobutyric acid receptor subunit alpha-1 (Rattus norvegicus, UniProt P62813)
[12] = molecular target: Beta-1 adrenergic receptor (Homo sapiens, UniProt P08588); assay type: functional

Measured: AC50
Also: assay procedure not described here.

C[N+]1(CCCCC[N+]2(C)CCCC2)CCCC1 [PENTOLINIUM]
not listed: [11] | [12]
> 30 µM: all other assays above

CC(C)(C)NCC(O)COc1cccc2c1SCCC2 (stereo not given) [TERTATOLOL]
29.6 µM: [8]
0.0569 µM: [3]
17.3 µM: [10]
not listed: [11] | [12]
> 30 µM: all other assays above

OB1OCc2cc(F)ccc21 [TAVABOROLE]
14.1 µM: [5]
not listed: [11] | [12]
> 30 µM: all other assays above

Nc1ccc2cc3ccc(N)cc3nc2c1 [PROFLAVINE]
> 0.3 µM: [1]
2.69 µM: [8]
0.786 µM: [4]
16.3 µM: Histamine H3 receptor
5.16 µM: [9]
26.6 µM: [10]
5.49 µM: [7]
> 30 µM: Androgen receptor | [2] | [5] | [6]
17.2 µM: [3]

NC1CCN(c2c(F)cc3c(=O)c(C(=O)O)cn(C4CC4)c3c2Cl)C1 (stereo not given) [CLINAFLOXACIN]
not listed: [11] | [12]
> 30 µM: all other assays above

OC(CCN1CCCCC1)(c1ccccc1)c1ccccc1 [PRIDINOL]
29.8 µM: [3]
not listed: [2] | [12]
> 30 µM: all other assays above

O=[N+]([O-])c1cn2c(n1)OC[C@@H](OCc1ccc(OC(F)(F)F)cc1)C2 [PRETOMANID]
> 10 µM: [1] | [12]
not listed: [2]
> 30 µM: all other assays above

CCOc1ccccc1OCC1CNCCO1 (stereo not given) [VILOXAZINE]
> 10 µM: [12]
0.362 µM: [8]
9.72 µM: [3]
not listed: [10] | [11]
> 30 µM: all other assays above

OC(c1ccccc1)(c1ccccc1)C12CC[N+](CCOCc3ccccc3)(CC1)CC2
2.73 µM: [8]
0.302 µM: [10]
15.6 µM: [6]
0.898 µM: [9]
not listed: [2] | [12]
> 30 µM: all other assays above

CC1=C(/C=C/C(C)=C/C=C/C(C)=C/C=C/C=C(C)/C=C/C=C(C)/C=C/C2=C(C)CCCC2(C)C)C(C)(C)CCC1 [BETA CAROTENE]
5.22 µM: [7]
not listed: [2] | [12]
> 30 µM: all other assays above

CC(=O)OCC1=C(C(=O)O)N2C(=O)[C@@H](NC(=O)[C@H](N)c3ccccc3)[C@H]2SC1 [CEPHALOGLYCIN]
26.5 µM: [7]
not listed: [2] | [12]
> 30 µM: all other assays above

CN1CCN(C2=Nc3ccccc3Sc3ccc(Cl)cc32)CC1 [CLOTHIAPINE]
0.76 µM: [8]
4.87 µM: [10]
> 10 µM: [1]
3.62 µM: [9]
12.1 µM: [3]
not listed: [2] | [12]
> 30 µM: all other assays above

COc1cc([C@@H]2c3cc4c(cc3[C@H](O)[C@H]3COC(=O)[C@H]23)OCO4)cc(OC)c1OC [PODOFILOX]
> 10 µM: [6]
not listed: [10] | [11] | [12]
> 30 µM: all other assays above

N=C1CCCN1Cc1[nH]c(=O)[nH]c(=O)c1Cl
not listed: [2] | [12]
> 30 µM: all other assays above

O=C(O)c1ccccc1C(=O)Nc1ccc(S(=O)(=O)Nc2nccs2)cc1 [PHTHALYLSULFATHIAZOLE]
> 10 µM: [3]
20 µM: [7]
not listed: [2] | [12]
> 30 µM: all other assays above
